# Source: patent US20100278875A1, “PROSTAGLANDIN E2 (PGE2) AS AN ADJUVANT IN MONOCLONAL ANTIBODY GENERATION” (priority 2006, published 2010)
# Tests used:
# ovalbumin (OVA) = assay: Anti-OVA antibody titers in Balb/c mice immunized with OVA in the presence or absence of PGE2; format: in vivo
# Description: (§1) To generate antibody against ovalbumin (OVA), Balb/c mice were immunized with 25 ug of OVA emulsified in adjuvant. To test the effect of PGE2, the mice were injected with 1 nmol PGE2 intraperitoneally (i.p.) 3 hours prior to immunization, and again at 24 and 48 hours post immunization. For the control group, the mice were injected (i.p.) with an equal volume of PBS 3 hours prior to immunization. The mice were boosted with 25 ug OVA on Day 14 (i.p.) and Day 28 (subcutaneously). Anti-OVA titers were determined on Day 27 and Day 35.
# (§2) To assess the effect of PGE2 on generating antibodies against difficult targets, a nominal immunogen (AgX) known to be difficult to raise an antibody response was used. Briefly, Balb/c mice were immunized following the same schedule outlined above with either 25 ug of OVA or AgX and titered on Day 27 following 2 i.p. injections. […] Therefore, PGE2 enhances immune responses in Balb/c mice and may be used to shorten immunization time lines.
# nominal immunogen (AgX) = assay: Antibody titers in Balb/c mice against a nominal immunogen (AgX) in the presence or absence of PGE2; format: in vivo; conditions: following 2 injections, versus PBS
# Description: as §1, §2
# Given the difficult nature of this immunogen to generate antibodies against, this is a significant increase. Therefore, PGE2 can be used in Balb/c mice to enhance immune responses not only to strong immunogens, but also to difficult/nominal immunogens.
compound,measurement,setting,value
"CCCCC[C@H](O)/C=C/[C@H]1[C@H](O)CC(=O)[C@@H]1C/C=C\CCCC(=O)O [PGE2, Prostaglandin E2]",effect on anti-OVA titers (in words),"ovalbumin (OVA); Table 1 experiment, Day 27 and Day 35",significantly enhanced anti-OVA titers
same,effect on anti-OVA titers (in words),"ovalbumin (OVA); Table 2 experiment, following only 2 immunogen injections",enhanced anti-OVA titers
same,increase of anti-AgX titers,nominal immunogen (AgX),2-3 fold
